We go through 7 compounds from PubChem BioAssay (NCI).

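Test compounds were applied to cells in 96-well plates for 48 hours at 5 doses. TGI marks complete inhibition of growth.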 Some results are limits rather than exact numbers.

Some test systems named below: CAKI-1 renal; HCT-116 colon; HCT-15 colon; HOP-92 NSCLC; HS 578T breast; HT29 colon; KM12 colon; LOX IMVI melanoma; M14 melanoma; MALME-3M melanoma; MDA-MB-231 breast; OVCAR-5 ovarian; OVCAR-8 ovarian; RXF 393 renal; SF-268 CNS; SK-MEL-2 melanoma; T-47D breast; OVCAR-3 ovarian; OVCAR-4 ovarian.
What all share (assay): NCI anticancer screen, dose series, 48 h

For `CCOC(=O)C1=NOC2(C=C(Br)C(=O)C(Br)=C2)C1`, the TGI with CAKI-1 renal came to 2.88 µM; in the experiment with HCT-116 colon it was 2.63 µM; in the experiment on HCT-15 colon, 4.91 µM; in the experiment with HOP-92 NSCLC it was 3.56 µM; in the experiment with HS 578T breast, 68.1 µM; with HT29 colon, 4.68 µM. The TGI was 29.7 µM in the experiment on KM12 colon; 7.63 µM in the experiment with LOX IMVI melanoma; 3.29 µM in the experiment with M14 melanoma; 1.25 µM in the experiment with MALME-3M melanoma; 21.9 µM with MDA-MB-231 breast; 12.6 µM in the experiment on OVCAR-5 ovarian. The TGI was 5.3 µM in the experiment with OVCAR-8 ovarian; 3.54 µM in the experiment on RXF 393 renal; 29.1 µM in the experiment on SF-268 CNS; 15 µM in the experiment on SK-MEL-2 melanoma; 3.99 µM with T-47D breast.

In the case of `C=CCC1(OCc2ccccc2)C(=O)C(=O)OC1C1COC(C)(C)O1` (stereo not given), the TGI in the experiment on CAKI-1 renal, in the experiment on HCT-116 colon, in the experiment on HCT-15 colon, in the experiment with HS 578T breast, with HT29 colon and with KM12 colon was over 100 µM each time. The TGI in the experiment with LOX IMVI melanoma, in the experiment on M14 melanoma, with MALME-3M melanoma, in the experiment with MDA-MB-231 breast, in the experiment on OVCAR-3 ovarian and in the experiment with OVCAR-4 ovarian was over 100 µM throughout. The TGI in the experiment on OVCAR-5 ovarian, in the experiment on OVCAR-8 ovarian, with RXF 393 renal, in the experiment with SF-268 CNS, in the experiment with SK-MEL-2 melanoma and with T-47D breast was over 100 µM in each case.

On to `CNC(=O)C1(N)c2ccccc2C=Cc2ccccc21`, for which the TGI in the experiment on CAKI-1 renal, with HCT-116 colon, in the experiment on HCT-15 colon, with HOP-92 NSCLC, in the experiment with HS 578T breast and in the experiment with HT29 colon was over 100 µM each time. Also, the TGI with KM12 colon, in the experiment with LOX IMVI melanoma, in the experiment on M14 melanoma, in the experiment on MALME-3M melanoma, in the experiment with MDA-MB-231 breast and with OVCAR-3 ovarian was over 100 µM each time. Further, the TGI in the experiment with OVCAR-4 ovarian, with OVCAR-5 ovarian, in the experiment with OVCAR-8 ovarian, in the experiment on SF-268 CNS, in the experiment on SK-MEL-2 melanoma and in the experiment with T-47D breast was over 100 µM throughout.

Take `Cc1cc(C)c(-n2[nH]c(=O)n(C)c2=O)c(C)c1`: the TGI in the experiment with CAKI-1 renal, with HCT-116 colon, in the experiment with HCT-15 colon, in the experiment on HS 578T breast, in the experiment with HT29 colon and with KM12 colon was over 100 µM in each case. The TGI with LOX IMVI melanoma, in the experiment with M14 melanoma, with MALME-3M melanoma, in the experiment on MDA-MB-231 breast, with OVCAR-3 ovarian and in the experiment on OVCAR-4 ovarian was over 100 µM throughout. The TGI in the experiment with OVCAR-5 ovarian, in the experiment on OVCAR-8 ovarian, in the experiment on RXF 393 renal, in the experiment with SF-268 CNS, in the experiment with SK-MEL-2 melanoma and with T-47D breast was over 100 µM throughout.

Turning to `COC1=CC(=O)C2=C(C1=O)[C@H]1CC[C@]3(C)[C@@H](O)CC[C@H]3[C@@H]1CC2`, the TGI is 57.4 µM in the experiment on CAKI-1 renal; 30.7 µM in the experiment with HCT-116 colon; 31.9 µM in the experiment with HCT-15 colon; 37.5 µM in the experiment on HOP-92 NSCLC; 42.7 µM in the experiment on HS 578T breast; 19 µM in the experiment on HT29 colon. In addition, the TGI in the experiment with KM12 colon worked out at 32.3 µM; in the experiment with LOX IMVI melanoma, 35.8 µM; in the experiment with M14 melanoma it was 31.3 µM; with MDA-MB-231 breast, 5.84 µM; in the experiment on OVCAR-3 ovarian, 32.3 µM; in the experiment with OVCAR-4 ovarian, 30.9 µM. The TGI turned out to be 33.6 µM with OVCAR-5 ovarian; 31.6 µM with OVCAR-8 ovarian; 46.5 µM in the experiment on RXF 393 renal; 31 µM in the experiment with SF-268 CNS; 26.8 µM in the experiment with SK-MEL-2 melanoma; 38.4 µM in the experiment with T-47D breast.

For the compound `CC(C)(C)OC(=O)N/N=C(/N)Cc1ccc(Cl)cc1`, the TGI in the experiment with CAKI-1 renal, with HCT-116 colon, in the experiment on HCT-15 colon, with HS 578T breast, in the experiment with HT29 colon and with KM12 colon was over 100 µM each time. Further, the TGI in the experiment with LOX IMVI melanoma, with M14 melanoma, with MALME-3M melanoma, in the experiment with MDA-MB-231 breast, in the experiment with OVCAR-3 ovarian and in the experiment on OVCAR-4 ovarian was over 100 µM each time. Moreover, the TGI in the experiment on OVCAR-5 ovarian, in the experiment with OVCAR-8 ovarian, in the experiment on RXF 393 renal, in the experiment on SF-268 CNS, with SK-MEL-2 melanoma and in the experiment on T-47D breast was over 100 µM in each case.

For the compound `CS(=O)(=O)OCC1CN(S(C)(=O)=O)c2cc(O)ccc21` (stereo not given), the TGI in the experiment on CAKI-1 renal is 14.2 µM; with HCT-116 colon, 12.8 µM; in the experiment with HCT-15 colon it was 12.2 µM; in the experiment on HOP-92 NSCLC, 7.08 µM; in the experiment with HS 578T breast, over 100 µM; in the experiment on HT29 colon, 11.1 µM. Further, the TGI in the experiment with KM12 colon is 13 µM; in the experiment with LOX IMVI melanoma it was 13.3 µM; with MALME-3M melanoma, 4.35 µM; with MDA-MB-231 breast, 6.8 µM; with OVCAR-3 ovarian, 8.27 µM; in the experiment on OVCAR-4 ovarian it was 7.65 µM. The TGI with OVCAR-5 ovarian was 18.3 µM; in the experiment with OVCAR-8 ovarian, 11.5 µM; in the experiment on RXF 393 renal, 3.47 µM; in the experiment on SF-268 CNS, 13.5 µM; with SK-MEL-2 melanoma, 6.88 µM; with T-47D breast it was 1.96 µM.
